Test results published in a melting point compilation (Tetko et al.; mined from patent text by program, amines drawn as free bases though some values may be those of a salt).

melting point	Compound
296 to 298 °C	O=C1CCC(n2cnc3cc(F)ccc3c2=O)C(=O)N1 (stereo not given)
181 to 187 °C	Nc1c(NCc2ccccc2F)ccnc1Cl
305 °C	COc1ccc2nc3c(c(-c4ccc(C(F)(F)F)cc4)c2c1)CNC3=O
110 to 112 °C	CCCCC(CC)COc1ccc2c(-c3ccc(CO)cc3)c3cc(OCC(CC)CCCC)ccc3c(-c3ccc(CO)cc3)c2c1 (stereo not given)
102 to 115 °C	CCCCSCC(=O)c1cc2sc(=O)[nH]c2cc1Cl
188 to 190 °C	COc1ccccc1N1CCN(CCn2cnc3sc(C(=O)N(C)C)c(C)c3c2=O)CC1
> 250 °C	NCc1cccc(-c2cnc(-c3ccc(Cl)c(Cl)c3)[nH]2)c1
179 to 181 °C	CCCc1nc2c(N)nc3ccccc3c2n1CCCCN(OC)C(N)=O
196 to 197 °C	Cc1c(CC(=O)O)c2cc(OCc3csc(-c4ccc(C(F)(F)F)cc4)n3)ccc2n1Cc1ccc(Cl)cc1
73 to 74 °C	Nc1ccc(CN2CCSC2)cc1
68 to 70 °C	CC1(C)OCc2cc(C(O)CNCCCCCCOCCCCc3ccccc3)ccc2O1 (stereo not given)
196 to 198 °C	Cc1cc(-c2cccc(C(F)(F)F)c2)nn2c(C)nnc12
47 to 52 °C	CCOC(=O)C(CCc1ccccc1)N[C@H]1CSC(c2ccccc2)N(CC(=O)O)C1=O (stereo not given in full)
207 to 209 °C	FC(F)(F)c1cccc(Nc2ncnc(NCc3ccco3)n2)c1
36.6 °C	CCN(CC)C(=O)C=Cc1ccc(C)c(C)c1
86 to 90 °C	COc1ccc(C(F)(F)F)cc1-c1cccn2nc(Nc3ccc4c(c3)CCN(C(=O)OC(C)(C)C)C4)nc12
66 to 69 °C	COc1ccc(CCc2oc3cccc(OC(C)=O)c3c2C)cc1
177 to 179 °C	N#Cc1cc(=O)c(-c2ccccc2)co1
156 to 157 °C	Cc1cc(SCc2oc(-c3ccc(C(F)(F)F)cc3)nc2C)ccc1OCC(=O)O
237 to 239 °C	O=C1c2cnc3[nH]ncc3c2C(=O)N1CCc1ccccc1
102 to 103 °C	Cc1cccc(-c2nccc(NN)n2)c1
143 to 145 °C	CC(C)(CNc1nc(Cl)ncc1Cl)NS(C)(=O)=O

melting point	Compound
255 to 260 °C	O=c1[nH]c2cc([N+](=O)[O-])c(Sc3cccc4cnccc34)cc2o1
138 to 140 °C	COc1ccc(/C=N/Nc2ccccc2)cc1OC1CCCC1
220 to 221 °C	O=C(N[C@H](Cc1ccc(F)cc1)[C@@H](O)c1ccc(C(F)(F)F)cc1)C1CCCCC1 (racemic)
193 to 194 °C	COc1ccc(C(=O)Nc2cccc3cnccc23)cc1OC
96 to 102 °C	C#C[C@](C)(O)CCc1c(C)c(OC(C)=O)c(C)c(C)c1OC(C)=O
245 to 246 °C	Cc1ccc2cc(C(=O)NCCSC(c3ccccc3)(c3ccccc3)c3ccccc3)[nH]c2c1NS(=O)(=O)c1cccs1
199 to 200 °C	Nc1ncnc2c1c(-c1ccc(Oc3ccccc3)cc1)cn2C1CCC(O)CC1 (stereo not given)
115 to 116 °C	C[C@@H](O[Si](C)(C)C(C)(C)C)[C@H]1C(=O)N([Si](C)(C)C(C)(C)C)[C@@H]1CC=O
149 to 150 °C	CCOc1cc2cc(C(=O)OC)c(C(=O)OC)c(-c3ccncc3)c2cc1OCC
75 to 77 °C	CC(C)c1cccc(CN2C[C@H](CO)OC2=O)c1
126 to 127 °C	O=C1c2ccccc2C(=O)N1CCCCOc1ccncc1
96 to 98 °C	O=C(Nc1cc(C(F)(F)F)ccc1N1CCCCC1)c1ccncc1
288 to 289 °C	COc1cc2nc(N3CCN(C(=O)C=Cc4ccc(N(C)C)cc4)CC3)nc(N)c2cc1OC
132 to 133 °C	Cc1c(NC(=O)CC(C)(C)C)cc2c(c1C)OCC2(C)c1ccc(C(C)C)cc1 (stereo not given)
283 to 286 °C	COc1ccc2c(c1)c1c3c(c(-c4ccccc4Cl)cc1n2CCC(N)=O)C(=O)NC3=O
183 to 184 °C	CNc1nn(-c2ccc(C)c3c2OC(C)(C)C3)c(=O)o1
177 to 179 °C	Cc1c(CC(C)(C)C(=O)O)n(Cc2ccc(Cl)cc2)c2ccc(OCc3ccc(-c4ccccc4)cn3)cc12
82 to 83 °C	CCOC(=O)/C=C/c1cnn(C)c1-c1ccoc1
149 to 150 °C	CCOP(=O)(CCc1cccc(-c2nc(=O)c3ccccc3s2)n1)OCC
269 °C	Cc1ccc2[nH]c(=O)c(C(=O)NC3CCCCC3)c(O)c2c1
109 °C	O=C(NCCc1ccccn1)N(c1ccccc1)c1ccccc1
231 °C	COc1ccc(-c2ncc(-c3cnc(-c4ccccc4)[nH]3)cn2)cc1OC

melting point	Compound
148 to 150 °C	CC(C)(C)C(=O)Oc1cc(C=CC(=O)c2ccccc2)cc([N+](=O)[O-])c1O
211 to 213 °C	COc1cc(-c2nc(N3CCN(C(C)=O)CC3)c3c(C)c(C#N)sc3n2)cc(OC)c1OC
266 °C	CC(C)n1cc(-c2nc(C(N)=O)c(N)nc2-c2cccc(OC(F)(F)F)c2)ccc1=O
145 to 150 °C	O=C(C=CCN1CCN(C[C@H]2CCC(=O)O2)CC1)Nc1cc2c(Nc3ccc(F)c(Cl)c3)ncnc2cc1OCC1CC1
131 to 133 °C	COc1ccc(Cl)cc1N1CCN(CCCN2C(=O)c3ccccc3C2=O)CC1
138 to 139 °C	Cc1nn(C)c(-c2ccccc2)c1N
127 to 128 °C	CCN1C(=O)C(C)(C)C(=O)N(C)c2cc(CN(CCn3ccc4ccsc4c3=O)Cc3cc(C)nn3C)ccc21
60 to 62 °C	C1CCN(CCN2CCNCC2)CC1
87 to 88 °C	CCOC(=O)n1c2ccccc2c(=O)n1CSc1ccccc1
110 to 112 °C	CN1CCN(CCOc2ccc3nc(C#N)nc(NC4CCCC4)c3c2)CC1
191 to 192 °C	O=c1c(CCCc2ccncc2)cc2cccnc2n1-c1cccc2nsnc12
170 to 172 °C	CCOc1cc(C#N)ccc1C(=O)O
55 to 56 °C	CCc1nc(-c2ccc(OCCCN3CCN(C)CC3)cc2)no1
78 to 79 °C	COC(=O)C(Cc1ccc(OCCN(C)c2nc3ccccc3o2)cc1)Sc1ccccc1 (stereo not given)
64 to 66 °C	CC(C)(C)C(=O)c1cncnc1
161 to 163 °C	O=C1Nc2ccccc2N(C(=O)N2CCCC(CCCN3CCOCC3)C2)c2ncccc21 (stereo not given)
135 to 136 °C	CCCOc1ccccc1C(=O)Nc1ccncc1C(N)=O
76.5 to 78.2 °C	C#CC1C2=C(c3ccc(OCc4ccccc4)cc3N1C(=O)Oc1ccccc1)C(O[Si](C)(C)C(C)(C)C)CCC2 (stereo not given)
65 to 67 °C	CCCNc1cn(-c2cccnc2)nc1C
258 to 266 °C	CN=C(O)c1cc(Cl)c(Sc2ccccc2C(=O)O)cc1C(=O)O
115 °C	[O-][N+](=Cc1ccc(OCc2ccccc2)cc1)C1CCCC1

Compound	melting point
O=C(O)c1cc(-c2ccc(Cl)cc2)n(Cc2ccc(Cl)cc2Cl)n1	185 °C
CC1(C)N=C(c2ccccc2F)c2cc([N+](=O)[O-])ccc2NC1=O	241 °C
c1ccc2sc(N3CCNCC3)nc2c1	63 to 64 °C
Cc1ccc(C(=O)NCC(=O)N2CC2C#N)cc1 (stereo not given)	92 to 94 °C
CNc1ccc(NC(=O)c2cc3cc(F)ccc3n2Cc2cccc(F)c2)cn1	225 to 227 °C
